# Laboratory results published in ChEMBL document CHEMBL3507680, “University of Dundee, Gates Library screen for HepG2 cell viability”.
# Test: Human HepG2 cell viability assay in 384 well format
# Format: toxicity, cell-based
# Design: dose 125 nL, time 70.5 hour; concentration not given beside the values
# Details: HepG2 cells, read-out: Inhibition
row,Compound,cytotoxicity at 70.5 h [%]
1,CNC(=O)C1CCCCN1C(=O)c1csc(-c2ccc(C)o2)n1 (configuration not stated),-6.71
2,Cc1nn(C)c(Cl)c1C1CCCN1C(=O)c1nccnc1N (configuration not stated),-11.6
3,CS(=O)(=O)NCCCN1CCCC1c1ccsc1 (configuration not stated),-9.71
4,CO[C@@H]1CN(c2ccccc2)S(=O)(=O)[C@@]12CCN(Cc1ccccc1)C2,-1.84
5,CN(CCNC(=O)c1scnc1Cl)c1ccccc1,2.36
6,CC(C)(NC(=O)Cc1ccccc1F)C(C)(C)C(=O)O,-0.854
7,CCn1c(N)nc2cc(C(=O)N3CCN(CC(F)(F)F)CC3)cnc21,-13
8,COc1ccc(NC(=O)C2CC2)cc1OCc1cccnc1,23
9,O=C(CC1CCCCC1)N1CCOCC1CO (configuration not stated),-14.9
10,O=C(Cc1ccc2c(c1)OCCO2)NC1CCCCC1,-1.15
11,Cc1nc[nH]c1-c1nccn1CCCN(C)C,6.24
12,COCCN1C[C@@H]2COC[C@@H](CC(=O)NCc3cccnc3)[C@@H]2C1,-16.6
13,CCOCCN1CCN(Cc2csc(-c3cnn(C)c3)n2)CC1,-13.2
14,CN(C)CCNC(=O)Nc1cccc(C[S+]([O-])Cc2ccccc2)c1 (configuration not stated),-2.04
15,Cc1cc(C)cc(C(=O)Nc2cccc(CN3CCCC3C(N)=O)c2)c1 (configuration not stated),6.78
16,CSC1(CNC(=O)c2cccc(-n3cccn3)c2)CCOCC1,1.71
17,CNc1ccc(CC2CCCN(C(=O)c3cnccn3)C2)nn1 (configuration not stated),-14.4
18,CNC(=O)[C@@H]1C[C@H](N)CN1S(=O)(=O)c1cc(Cl)cc(Cl)c1O,-6.21
19,O=C(c1cccnc1)N1CCCC1C1CCN(Cc2ccccc2)CC1 (configuration not stated),-13.7
20,CC(=O)N1CCC(Cc2cncc(-c3c(C)n[nH]c3C)n2)C1 (configuration not stated),-9.36
21,Cc1c(Br)cccc1C(=O)NCCC1CCCNC1 (configuration not stated),12

row,Compound,cytotoxicity at 70.5 h [%]
1,O=C1NCC2(CCCN(C(=O)c3ccc4c(c3)CCCO4)CC2)O1 (configuration not stated),4.55
2,CC(=O)N1CCC2(CC1)CNc1ccc(F)cc12,-5.28
3,O=S(=O)(c1ccc(F)cc1Cl)N1CCCC1c1ccncc1 (configuration not stated),-6.79
4,CCN(Cc1nc2c(cnn2C)c(=O)[nH]1)c1cccc(C)c1C,-0.49
5,CC(OCC(F)(F)F)C(=O)N1CCCCC1 (configuration not stated),0.611
6,Cc1nc(CN2C(=O)CCC23CCN(Cc2ccco2)CC3)cs1,-1.31
7,NC(=O)C(NCc1ccc(Cl)s1)c1ccccc1 (configuration not stated),-7.49
8,CS(=O)(=O)N1CCC(CNC(=O)C2CCCC2)CC1,-16
9,CN(C)C1(CNc2nccc(C3CCCC3)n2)CCOCC1,-4.46
10,O=C(NCC(O)c1ccc(Cl)s1)c1ccoc1 (configuration not stated),-8.52
11,Cc1cc2nc(SCC(=O)N3CCCC3)n(C(C)C)c(=O)c2[nH]1,14.9
12,COC1CCN(C(=O)c2ccc3ncsc3c2)CC1,-2.33
13,CN(C)C(=O)CN1CCC2(COCc3cnc(N4CCOCC4)nc32)C1 (configuration not stated),19.8
14,O=C(O)[C@@H]1CN(Cc2ccc3nsnc3c2)C[C@H]1c1cccnc1,1.8
15,Cc1cc(C2CCCN(CCc3ccc4c(c3)CCO4)C2)n[nH]1 (configuration not stated),-8.81
16,CCn1cc(-c2cncn2CCc2ccc3c(c2)OCCO3)cn1,19.5
17,CCOCC1CN(C(=O)N2CCCC2)Cc2cnn(C)c21 (configuration not stated),-6.47
18,CN(Cc1ccc(N(C)C)cc1)C(=O)CSc1ccc(Br)cc1,-9.49
19,Cc1ccc(CNc2ccccc2-n2ccc(C)n2)nc1,8.61
20,CC(=O)c1cc(Br)cc(F)c1OCC(=O)NC1CC1,0.481
21,Cc1ccc(Cc2cnc(C3CCNCC3)cn2)cc1,-12.9

row,Compound,cytotoxicity at 70.5 h [%]
1,O=C1CCNc2ncc(-c3ccccc3Cl)cc2CN1C1CC1,0.196
2,CN(C)c1nc2ncc(Cl)cc2cc1C#N,22
3,CC(C)N(C)Cc1cncc2c1CCN(C(=O)c1ccc[nH]1)C2,-1.2
4,Cc1nnc(NC(=O)NCc2ccc(C)n2C)s1,13.4
5,O=C(NC1CC1)C1CNCCN1C(=O)COc1ccc2c(c1)OCO2 (configuration not stated),-5.08
6,Cc1nc(Nc2cnccn2)cc(C2CCN(c3ncccn3)C2)n1 (configuration not stated),-12.7
7,O=C(Cn1ccnc1)N1CC[C@H](Oc2cccc(F)c2)[C@@H](O)CC1,13
8,N#Cc1cnn(C(=O)COc2ccccc2F)c1N,1.04
9,O=C(COC1CCCC1)NCc1ccc(O)c(F)c1,-3.82
10,N[C@H]1CN(C(=O)CCc2ccccn2)C[C@@H]1c1ccccc1,4.91
11,Cc1ccc(N2CCCC(NCc3nnc(-c4ccco4)o3)C2)nn1 (configuration not stated),-13.2
12,Cc1ccc(F)cc1CC(=O)N(CCN1CCOCC1)Cc1ccco1,-6.95
13,COc1ccccc1-c1cc(C(F)(F)F)c2c(C)nn(CC(=O)O)c2n1,18.1
14,CC(NCc1ccc(C(C)(C)C)cc1)c1ccc(S(C)(=O)=O)cc1 (configuration not stated),-8.09
15,Cc1nc(N2CCN3CCCCC3C2)nc2cc(S(C)(=O)=O)ccc12 (configuration not stated),0.525
16,CCC(=O)N1CCCCC1c1nc(N(C)C)ncc1-c1cc(C)no1 (configuration not stated),1.06
17,CCc1noc(CS(=O)(=O)CC(=O)N2c3ccccc3CC2C)n1 (configuration not stated),-12.6
18,COC[C@H]1CC[C@H]2[C@H](CCN2S(=O)(=O)c2ccccc2)O1,5.05
19,CC(=O)N1CCC2(CCN(CC3CCOC3)C2)CC1 (configuration not stated),-1.33
20,CCCc1nn(Cc2csc(CC)n2)c(=O)o1,-4.3
21,Cn1ccnc1CN1C(=O)CO[C@H]2CN(Cc3ccc(F)c(F)c3)C[C@H]21,8.11

row,Compound,cytotoxicity at 70.5 h [%]
1,CC(C)(C)OC(=O)N[C@@H]1C[C@@H](O)CN(C(=O)c2cccc(F)c2)C[C@H]1O,-3.14
2,O=C1NC(c2ccccc2)=N[C@@]12CC[C@@H]1CN(S(=O)(=O)C3CC3)C[C@@H]12,2.16
3,O=C(c1ccc2c(c1)OCO2)N1C[C@@H](CN2CCCCC2)[C@@H](CO)C1,-0.201
4,CCOc1ccc(Cl)cc1CCNC(=O)N1CCCC(CO)C1 (configuration not stated),-7.21
5,O=C(NCCCn1nc2ccccn2c1=O)Nc1ccccc1Cl,0.153
6,CCc1cnc(NCCCN2CCC(O)CC2)nc1,-1.08
7,Cc1nn(C)c2c(=O)n(CC(=O)NCCN3CCCCCC3)ccc12,-4.19
8,CC(Oc1ccc2c(c1)OCO2)C(=O)N1CCC(N2CCOCC2)CC1 (configuration not stated),-2.72
9,CC(=O)N1CCOCC2(CCN(Cc3ccc(C)s3)CC2)C1,-4.66
10,O=C(NCCc1nnc2n1CCC2)N(Cc1ccco1)C1CCCC1,-6.25
11,CC(C)Cc1cc(CC2(NCc3ccco3)COC2)no1,-3.13
12,O=C(CCc1ccccc1F)NC1CCCN(c2ccccn2)C1 (configuration not stated),-5.74
13,O=C([C@H]1C[C@H]2OCC[C@H]2N(Cc2ccoc2)C1)N1CCCCO1,-6.32
14,Cc1n[nH]c(C2CN(C(=O)Cn3ccccc3=O)CCO2)n1 (configuration not stated),7.95
15,CC(C)c1nccn1-c1cccc(C2CCCN2S(=O)(=O)N(C)C)n1 (configuration not stated),0.791
16,CSc1ccc(CN(C(=O)c2cc(C)[nH]c(=O)c2)C2CC2)cc1,0.291
17,c1cc(-c2cncc(C3CCNCC3)n2)n[nH]1,-6.89
18,CN(C)C(=O)c1cccc(CN2CCOC(Cn3cccn3)C2)c1 (configuration not stated),-12.9
19,Cc1cccnc1CC(C)Nc1ncc(C)c(N(C)C)n1 (configuration not stated),2.64
